Patent US20060159676A1, “Methods for modulating angiogenesis, lymphangiogenesis, and apoptosis with apelin compositions” (priority 2005, published 2006)

Assays:
apelin expression = experiment: Apelin expression in rat cardiac myocytes under cobalt chloride (hypoxia mimic), PCR; type: cell-based
Protocol: Because HIF-1α consensus sites are present in the apelin regulatory region, experiments were conducted to determine whether apelin expression is hypoxia responsive and regulated by HIF-1α. Upregulation of apelin expression under hypoxic conditions would be consistent with a role for apelin in promotion of tumor angiogenesis. Preliminary experiments were carried out using primary rat cardiomyocyte cells in culture and treatment with cobalt chloride. This procedure is accepted as an equivalent to culturing cells under hypoxic conditions because HIF-1α is a metal responsive transcription protein (Ladoux and Frelin, 1994; Piret et al., 2002; Maxwell and Salnikow, 2004). Fetal rat cardiac myocytes were plated and cultured in DMEM (Invitrogen, Carlsbad, Calif.) supplemented with 10% fetal calf serum and penicillin/streptomyocin at 37° C. After four days of culture, medium was removed, and cells were treated with fresh media containing 150 μM Cobalt Chloride (Piret et al., 2002). […] After 4 hours of culture, cells were harvested, and total RNA was extracted using the Trizol procedure according to the manufacturers recommendations (Invitrogen, Carlsbad, Calif.).
Following PCR, amplification products were fractionated on an agarose gel and visualized using ethidium bromide staining under ultraviolet light (FIG. 12). […]

[1] = system: mouse endothelial cells (bEnd3); experiment: bEnd3 endothelial cell proliferation (BrdU incorporation); type: cell-based
Protocol: Similar cellular proliferation assays were performed using mouse endothelial cells (bEnd3) that constitutively express APJ. […] SU1498 was included in proliferation cultures at a 25 μM concentration, and results were assayed using BrdU incorporation.
Proliferation inhibition experiments with the bEnd3 cells also were carried out using FGF (50 ng/ml) or the FGF pathway inhibitor SU5402 (FIG. 19). SU5402 was included in proliferation cultures at a 20 μM concentration, and results were assayed using BrdU incorporation.

BAE/APJ#2 cells = conditions: 10 ng/ml in bottom chamber, 16 hours
Protocol: Bovine aortic endothelial cells (BAE) were cultured in DMEM supplemented with 10% fetal bovine serum (FBS) and penicillin/streptomycin. For generation of stable cell lines expressing APJ, the mouse APJ coding region was cloned into the pcDNA 3.1 vector downstream of the CMV promoter, in frame with a myc epitope at the C-terminal end of the protein, and upstream of the neomycin gene. Bovine aortic endothelial (BAE) cells were transfected with this construction using the Superfect transfection kit (Qiagen) and selected for resistance to G418 (600 μg/ml). Colonies were isolated and screened using RT-PCR for expression of mouse APJ and also by immunocytochemistry for expression of the myc epitope.
Cell migration assays were performed using Transwell cell culture migration chambers (Becton Dickinson) with 8 micron pore size. BAE/APJ#2 cells were plated in serum free conditions in 100 μl at a concentration of 1×10^5 ml in the upper chamber of the migration chamber. Following cell attachment to the membrane, 10 ng/ml of growth factor was added to the bottom chamber, in a total volume of 0.5 ml. […] Cells attached to the membrane in the lower chamber were stained with DAPI, and 3 random fields were counted for each experimental condition.

[2] = system: BAE/APJ#2 cells (bovine aortic endothelial cells expressing mouse APJ); experiment: BAE/APJ#2 endothelial cell proliferation (BrdU incorporation); type: cell-based; conditions: SU1498 10 ng/ml
Protocol: SU1498 was included in proliferation cultures at a concentration of 10 ng/ml and results were assayed using BrdU incorporation. After growth factor incubation, BrdU was added to each well at a final concentration of 10 μM for 2 hours, cells were washed, and fixed for BrdU immunocytochemistry.
Cells were fixed in 100% ice cold methanol at 4° C. for 2 hours to overnight. Prior to staining, cells were air dried and rehydrated for 3 minutes with PBS buffer. DNA was denatured at 37° C. with 2 M HCl, and neutralized with 2 washes for 5 minutes in 0.1 M borate buffer (pH 8.5). […] FITC-labeled anti-BrdU antibody (5 μg/ml) in block was added for 1 hour at room temperature. Cells were counterstained with propidium iodide following several washes in PBS buffer. For each experiment, 4 random fields were photographed for determination of percentage BrdU labeling.

lymphatic vessels = experiment: In vivo lymphatic vessel branching assay, quail CAM; conditions: collagen disk with 50 ng apelin or 100 ng VEGF-C on CAM of 7 day quail embryos, 18 hours
Protocol: (§1) All experiments were carried out using chorioallantoic membranes (CAMs) of quail embryos. Quail embryos used for the lymphatic experiments were 7 days old. Collagen purified from rat tails (Bernanke and Markwald, 1982) was polymerized in 2 mm disks at a final concentration of approximately 1.6 mg/ml in standard phosphate buffered saline (PBS). The total volume of the collagen disk was approximately 10 μl. For experimental treatments, the collagen disks were supplemented with either 50 ng of apelin peptide or 100 ng of VEGF-C protein prior to polymerization at 37° C. for 30 minutes. The VEGF-C was a positive control for these experiments. (Recombinant Human VEGF-C (Cys156Ser), R&D Systems, cat # 752-vc). Apelin peptide was synthesized by Sigma-Genosys (>90% purity).
For lymphangiogenesis assays, the CAMs of 7 day quail embryos were exposed, in ovo, and the collagen disks were placed directly onto the surface of the CAM. […]
(§2) The samples were incubated with primary antibody (Prox1, Research Diagnostics, cat # RDI-102PA30, diluted to 2 μg/ml final concentration) for 4 hours at room temperature or overnight at 4° C. […] Both the lymphatic cell number as well as the number of lymphatic branches were determined.
Both blood vessels and lymphatic vessels were stained with the QH-1 antibody. […] The number of lymphatic vessels branching away from blood vessels (towards the collagen disk) were counted. […]

[3] = system: lymphatic endothelial cells; experiment: In vivo lymphatic cell number assay, quail CAM (Prox1 staining); conditions: collagen disk with 50 ng apelin or 100 ng VEGF-C on CAM of 7 day quail embryos, 18 hours
Protocol: as §1, with “purity). […]” for “purity).”
as §2
Assays for lymphatic cell number were carried out in areas of the CAM that were close to the location of the collagen disk as described above. Since Prox1 specifically stains lymphatic endothelial cell nuclei, the number of cells in the lymphatic branches was counted directly. […]

[Cl][Co][Cl] [Cobalt Chloride]
apelin expression (apelin expression; 150 μM Cobalt Chloride, 4 hours, fetal rat cardiac myocytes): significantly increased
apelin expression (apelin expression; Cobalt chloride 30 μg/ml, rat cardiac myocytes): induced

VEGF
cellular proliferation of endothelial cells ([1]; apelin 10 ng/ml or VEGF 50 ng/ml, 0.1 ng/ml to 1 μg/ml (FIG. 17)): proliferate upon the addition of VEGF or apelin
endothelial cell migration (cells per field) (BAE/APJ#2 cells): increase in migration

Cc1c[nH]c(/C=C2\C(=O)Nc3ccccc32)c1CCC(=O)O [SU5402]
effect on FGF-mediated proliferation ([1]; SU5402 20 μM, FGF 50 ng/ml): partially inhibited the proliferative effect of FGF
effect on apelin-stimulated cellular proliferation ([1]; SU5402 20 μM, apelin 10 ng/ml): did not have a significant effect on apelin-stimulated cellular proliferation

CC(C)c1cc(/C=C(\C#N)C(=O)NCCCc2ccccc2)cc(C(C)C)c1O [SU1498]
effect on VEGF-mediated proliferation ([2]; VEGF 10 ng/ml): partially inhibits VEGF-mediated proliferation
effect on apelin-mediated proliferation ([2]; apelin 10 ng/ml): no significant effect on apelin-mediated proliferation
effect on VEGF-mediated proliferation ([1]; SU1498 25 μM, VEGF 50 ng/ml): partially inhibits VEGF-mediated proliferation
effect on apelin-mediated proliferation ([1]; SU1498 25 μM, apelin 10 ng/ml): no significant effect on apelin-mediated proliferation

B1: VEGF-C: Recombinant Human VEGF-C (Cys156Ser), R&D Systems; positive control for lymphangiogenesis (protein, UniProt P49767 112-227, looked up, variant C156S)
Vascular endothelial growth …: AHYNTEILKSIDNEWRKTQCMPREVCIDVGKEFGVATNTFFKPPSVSVYRCGGCCNSEGLQCMNTSTSYLSKTLFEITVPLSQGPKPVTISFANHTSCRCMSKLDVYRQVHSIIRR
number of lymphatic vessels branching away from blood vessels (lymphatic vessels): positive regulator of lymphatic branching angiogenesis
lymphatic cell number (Prox1 positive nuclei) [3]: mitogenic factor for lymphatic endothelial cells
